This note sets out measurements from patent US7235674B2, “Substituted coumarins and quinolines and analogs as activators of caspases and inducers of apoptosis and the use thereof” (Cytovia, Inc., priority 2001, dated 2007).

Experiment [1] concerns Human breast cancer cell line T-47D. Kind of experiment: Caspase cascade activation assay (N-(Ac-DEVD)-N'-ethoxycarbonyl-R110 fluorogenic substrate) in T-47D cells. The experiment is classed as cell-based. Particulars: for Caspase activity (Ratio) T-47D: ratio of net RFU of test compound to control, 3 h substrate reading. On the procedure: (§1) Human breast cancer cell lines T-47D and ZR-75-1 were grown according to media component mixtures designated by American Type Culture Collection +10% FCS (Invitrogen Corporation), in a 5% CO2 −95% humidity incubator at 37° C. T-47D and ZR-75-1 cells were maintained at a cell density between 30 and 80% confluency at a cell density of 0.1 to 0.6×10^6 cells/mL. Cells were harvested at 600×g and resuspended at 0.65×10^6 cells/mL into appropriate media +10% FCS. An aliquot of 45 μl of cells was added to a well of a 96-well microtiter plate containing 5 μl of a 10% DMSO in RPMI-1640 media solution containing 0.16 to 10 μM of 3-cyano-7-methoxy-4-(3-bromo-4,5-dimethoxyphenyl)-2-oxo-2H-chromene (Example 1) or other test compound (0.016 to 1 μM final). An aliquot of 45 μl of cells was added to a well of a 96-well microtiter plate containing 5 μl of a 10% DMSO in RPMI-1640 media solution without test compound as the control sample. The samples were mixed by agitation and then incubated at 37° C. for 24 h in a 5% CO2 −95% humidity incubator. After incubation, the samples were removed from the incubator and 50 μl of a solution containing 20 μM of N-(Ac-DEVD)-N′-ethoxycarbonyl-R110 fluorogenic substrate (SEQ ID NO:1) (Cytovia, Inc.; WO99/18856), 20% sucrose (Sigma), 20 mM DTT (Sigma), 200 mM NaCl (Sigma), 40 mM Na PIPES buffer pH 7.2 (Sigma), and 500 μg/ml lysolecithin (Calbiochem) was added. The samples were mixed by agitation and incubated at room temperature. Using a fluorescent plate reader (Model 1420 Wallac Instruments), an initial reading (T=0) was made approximately 1-2 min after addition of the substrate solution, employing excitation at 485 nm and emission at 530 nm, to determine the background fluorescence of the control sample. After the 3 h incubation, the samples were read for fluorescence as above (T=3 h).
(§2) The Relative Fluorescence Unit values (RFU) were used to calculate the sample readings as follows: RFU(T=3 h)−Control RFU(T=0)=Net RFU(T=3 h)
(§3) The activity of caspase cascade activation was determined by the ratio of the net RFU value for 3-cyano-7-methoxy-4-(3-bromo-4,5-dimethoxy-phenyl)-2-oxo-2H-chromene, or other test compound, to that of control samples. The EC50 (nM) was determined by a sigmoidal dose-response calculation (Prism 2.0, GraphPad Software Inc.).

Experiment [2] concerns Human breast cancer cell line ZR-75-1. Description: Caspase cascade activation assay (N-(Ac-DEVD)-N'-ethoxycarbonyl-R110 fluorogenic substrate) in ZR-75-1 cells. The experiment is classed as cell-based. Particulars: for EC50 / maximal fold induction: Homo sapiens; for Caspase activity (Ratio) ZR-75-1: ratio of net RFU of test compound to control, 3 h substrate reading; for maximal fold induction: ZR-75-1, 24 h, read-out: Max efficacy ZR751. On the procedure: as §1, §2, §3

Setting [3] is: Homo sapiens, T47D, caspase cascade activation potency, T-47D cells, 24 h incubation.
The mark [4] stands for this setting: caspase cascade activation potency, ZR-75-1 cells, 24 h incubation.
Setting [5] is: commercial fused-pyridine compounds, ZR751 cells.
Setting [6] is: ZR-75-1, commercial fused-pyridine compounds, ZR751 cells.
The mark [7] stands for this setting: commercial fused-pyridine compounds, T47D cells.

As to `Cn1ccc2c3oc(=O)c(C#N)c(-c4cccc([N+](=O)[O-])c4)c3ccc21` [Example 38, 3-Cyano-7-methyl-4-(3-nitro-phenyl)-2-oxo-2H-pyrrolo[2,3-h]chromene], the EC50 in experiment [1] (setting [3]) is greater than 100 nM; in experiment [2] (setting [4]) it was 22 nM. For the same compound, the “Caspase activity (Ratio) T-47D” value in experiment [1] (T-47D cells, 24 h incubation) was 1.8. Also, the “Caspase activity (Ratio) ZR-75-1” value in experiment [2] (ZR-75-1 cells, 24 h incubation) was found to be 5.0.
As for `COc1cc(OC)cc(-c2c(C#N)c(=O)oc3c2ccc2c3ccn2C)c1` [Example 39, 3-Cyano-4-(3,5-dimethoxy-phenyl)-7-methyl-2-oxo-2H-pyrrolo[2,3-h]chromene], the EC50 in experiment [1] (setting [3]) was greater than 100 nM; in experiment [2] (setting [4]), 20 nM. For the same compound, the “Caspase activity (Ratio) T-47D” value in experiment [1] (T-47D cells, 24 h incubation) came to 1.9. Besides, the “Caspase activity (Ratio) ZR-75-1” value in experiment [2] (ZR-75-1 cells, 24 h incubation) was 5.2.
Turning to `COc1cc(-c2c(C#N)c(=O)oc3c2ccc2c3ccn2C)cc2c1OCO2` [Example 40, 3-Cyano-4-(3-methoxy-4,5-methylenedioxyphenyl)-7-methyl-2-oxo-2H-pyrrolo[2,3-h]chromene], the EC50 in experiment [1] (setting [3]) is greater than 100 nM; in experiment [2] (setting [4]) it was 24 nM. Further, the “Caspase activity (Ratio) T-47D” value in experiment [1] (T-47D cells, 24 h incubation) is 1.7. Moreover, the “Caspase activity (Ratio) ZR-75-1” value in experiment [2] (ZR-75-1 cells, 24 h incubation) was determined as 4.9.
The matching figures for `COc1cccc(-c2c(C#N)c(=O)oc3c2ccc2c3ccn2C)c1` [Example 41, 3-Cyano-4-(3-methoxy-phenyl)-7-methyl-2-oxo-2H-pyrrolo[2,3-h]chromene]: 55 nM, 22 nM, 2.3 and 4.9.
As to `Cn1ccc2c3oc(=O)c(C#N)c(-c4cccc(Br)c4)c3ccc21` [Example 42, 3-Cyano-4-(3-bromo-phenyl)-7-methyl-2-oxo-2H-pyrrolo[2,3-h]chromene], the EC50 stood at 56 nM in experiment [1] (setting [3]) and 17 nM in experiment [2] (setting [4]). The “Caspase activity (Ratio) T-47D” value in experiment [1] (T-47D cells, 24 h incubation) turned out to be 2.6. Moreover, the “Caspase activity (Ratio) ZR-75-1” value in experiment [2] (ZR-75-1 cells, 24 h incubation) is recorded as 4.2.
With `COc1ccccc1-c1c(C#N)c(N)nc2c1CCc1ccccc1-2` [compound 44], the maximal fold induction in experiment [1] (Homo sapiens, 24 h, commercial fused-pyridine compounds, T47D cells, read-out: Max efficacy T47D) is 10.7; in experiment [2] (setting [5]), 19.2. Besides, the EC50 stood at 3120 nM in experiment [1] (Homo sapiens, commercial fused-pyridine compounds, T47D cells) and 2040 nM in experiment [2] (setting [6]).
As to `COc1ccc(-c2c(C#N)c(N)nc3c2CCc2ccccc2-3)cc1OC` [compound 45], in experiment [1] (setting [7]), the “EC50 (nM) T47D” value is “Inactive” and the “Max efficacy T47D” value is listed as “Inactive”. Moreover, in experiment [2] (setting [5]), the maximal fold induction worked out at 7. In experiment [2] (setting [6]), this compound came in with an EC50 of 571 nM.
Consider `N#Cc1c(N)nc2c(c1-c1cccs1)CCCC2` [compound 46], for which, in experiment [1] (setting [7]), the “EC50 (nM) T47D” value is “Inactive” and the “Max efficacy T47D” value was “Inactive”. Moreover, the maximal fold induction in experiment [2] (setting [5]) was 3.1. This compound also returned an EC50 in experiment [2] (setting [6]) of 3410 nM.
Turning to `N#Cc1c(N)nc2sc(C(N)=O)c(N)c2c1-c1ccc(Br)cc1` [compound 47], in experiment [1] (setting [7]), the “EC50 (nM) T47D” value was “Inactive” and the “Max efficacy T47D” value was “Inactive”. Also, the maximal fold induction in experiment [2] (setting [5]) is 2.7. For the same compound, the EC50 in experiment [2] (setting [6]) turned out to be 6110 nM.
On to `C=CCNc1nc2nc(N)c(C#N)c(-c3ccc(Br)cc3)c2s1` [compound 48], for which, in experiment [1] (setting [7]), the “EC50 (nM) T47D” value is given as “Inactive” and the “Max efficacy T47D” value is on record as “Inactive”. For the same compound, the maximal fold induction in experiment [2] (setting [5]) stood at 2.9. Further, the response in experiment [2] (setting [6]) was half-maximal at 6040 nM (EC50).
In the case of `COc1ccc(-c2c(C#N)c(N)nc3c2CCCC3C)cc1` (stereo not shown) [compound 49], in experiment [1] (setting [7]), the “EC50 (nM) T47D” value is listed as “Inactive” and the “Max efficacy T47D” value was “Inactive”. Besides, in experiment [2] (setting [5]), the maximal fold induction amounted to 4.8. Moreover, in experiment [2] (setting [6]), a half-maximal effect (EC50) was put at 5710 nM.
Take `COc1ccc(-c2c(C#N)c(N)nc3c2CN(C)CC3)cc1OC` [compound 50]: in experiment [1] (setting [7]), the “EC50 (nM) T47D” value is recorded as “Inactive” and the “Max efficacy T47D” value is listed as “Inactive”. Besides, the maximal fold induction in experiment [2] (setting [5]) was 2.4. Besides, the EC50 in experiment [2] (setting [6]) was 576 nM.
Consider `N#Cc1c(N)nc2[nH]c(=S)[nH]c(=O)c2c1-c1ccc(Cl)cc1` [compound 51], for which, in experiment [1] (setting [7]), the “EC50 (nM) T47D” value is given as “Inactive” and the “Max efficacy T47D” value is “Inactive”. Further, in experiment [2] (setting [5]), the maximal fold induction amounted to 2.8. This compound returned an EC50 in experiment [2] (setting [6]) of 5380 nM.

By EC50 is commonly meant the concentration giving half of the maximal effect. Read a high EC50 as a need for much substance.
